The assay has as its target T1, HCV NS3 helicase (Hepatitis C virus genotype 1b, UniProt P26663).
T1 construct: full-length NS3 (1-631), purified at Array BioPharma
Put plainly: HCV Helicase Prompt FRET Assay (Example A). Format: biochemical. The note with it: for IC50: read-out: IC50 Activity. How it is done: Test compounds were diluted to 2.5 mM by adding 6 uL of a 10 mM solution of the compound to 18 uL of DMSO in a 384-well Costar polypropylene plate. Serial dilutions (2.5×) were performed in the plate using DMSO as the diluent. 1 ul of solution was transferred from each well to a new 384-well Costar polypropylene plate.
A 2× mixture was prepared containing 100 nM helicase substrate, 500 nM helicase capture strand (CS), and 600 μM ATP by diluting stock solutions with assay buffer consisting of 25 mM MOPS, pH 7.0, and 1.5 mM MgCl2, 0.005% (v/v) Triton X-100. Stock helicase substrate was prepared by annealing a FAM-labeled oligonucleotide to a BHQ-1 labeled oligonucleotide, which were both custom synthesized and HPLC-purified at Biosearch Technologies. The FAM-labeled and BHQ-labeled oligonucleotide had the following sequences:
The helicase capture strand was custom synthesized and purified at Integrated DNA Technologies. The helicase capture strand had the following sequence:
The ATP solution was prepared in MilliQ water, pH adjusted to approximately 7 with NaOH. ATP powder was obtained from Sigma (A-7699). The concentration was determined via A260 (ext. coeff=15,400 M^−1cm^−1).
11.5 μL of assay buffer was added to all wells of the plate containing luL of test compound. 5 μL of the Compound/assay buffer mixture was added to a black polystyrene 384-well Proxiplate. A 4× Enzyme solution was prepared by diluting enzyme stock containing full-length NS3 (1-631), purified at Array BioPharma, with assay buffer. 5 μL of the 4× Enzyme solution was added to the Proxiplate and incubated for 5 minutes (for control wells lacking enzyme, assay buffer was used instead). 10 μL of 2× substrate/CS/ATP mixture was then added to all wells of Proxiplate. The final assay conditions included 50 nM Substrate, 250 nM Capture Strand, 300 μM ATP, 5 or 6 nM Enzyme, and 2% (v/v) DMSO. The reaction proceeded for 70 cycles (˜30 min.) on an Envision at room temperature. The plate was read using the Envision (top mirror=FITC; Excitation filter=FITC 485; Emission filter=FITC 535). The fluorescence intensity was recorded for a total of 30 minutes. The initial rates of the reactions was calculated and used to calculate IC50 values. The IC50 curve fitting was performed using either a 4-parameter or 5-parameter logistic equation.

Where [1] appears, read: HCV NS3 helicase, tables do not say whether Example A or Example B assay.

This note sets out measurements from patent US20090047246A1, “NOVEL INHIBITORS OF HEPATITIS C VIRUS REPLICATION” (InterMune, Inc., priority 2007, published 2009).

Where two headings read alike, the source gives them in different places.

T1 sequence (P26663 1027-1657): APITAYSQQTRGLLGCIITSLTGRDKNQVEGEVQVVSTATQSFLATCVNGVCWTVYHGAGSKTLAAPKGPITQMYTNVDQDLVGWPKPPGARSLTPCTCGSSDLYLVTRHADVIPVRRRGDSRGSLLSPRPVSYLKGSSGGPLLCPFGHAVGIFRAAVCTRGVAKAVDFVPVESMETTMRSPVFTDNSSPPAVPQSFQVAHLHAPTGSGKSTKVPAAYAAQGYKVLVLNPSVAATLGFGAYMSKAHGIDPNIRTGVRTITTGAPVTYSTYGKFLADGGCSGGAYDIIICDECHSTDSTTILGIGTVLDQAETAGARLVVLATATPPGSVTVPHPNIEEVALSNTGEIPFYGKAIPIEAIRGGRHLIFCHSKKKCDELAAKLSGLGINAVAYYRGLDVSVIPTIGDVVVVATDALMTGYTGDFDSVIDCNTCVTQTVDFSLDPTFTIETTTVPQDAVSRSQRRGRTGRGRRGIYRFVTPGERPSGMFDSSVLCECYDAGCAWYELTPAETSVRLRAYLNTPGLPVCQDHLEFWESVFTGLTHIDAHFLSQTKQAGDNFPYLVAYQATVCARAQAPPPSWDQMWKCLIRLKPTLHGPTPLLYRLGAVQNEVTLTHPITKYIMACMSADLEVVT

For `CCOC(=O)Cc1cn(Cc2c(C)sc3ccc(Cl)cc23)c2cc(-c3cc(N)cc(N)c3)ccc12` [Compound 617], for the setting “Table 27, compounds made using Scheme 34”, the “IC50 Activity” value is “B or C”.
`CCOC(=O)Cc1cn(Cc2cccc(N(C)c3ccccc3Cl)c2)c2cc(-c3cccc(O)c3)ccc12` [Compound 624]: the IC50 (Table 30, compounds made using Scheme 37) is 10 to 50 µM.
In the case of `O=C(O)Cc1cn(Cc2csc3ccc(Cl)cc23)c2ccc(Br)cc12` [Example 100], under setting [1], the IC50 fell in the range of 10 to 50 µM.
For the compound `O=C(O)Cc1cn(Cc2cccc(OCc3ccccc3)c2)c2ccc(Br)cc12` [Example 101], the IC50 under setting [1] was less than 10 µM.
In the case of `CC(C)c1ccc(Cn2cc(CC(=O)O)c3cc(Br)ccc32)cc1` [Example 102], under setting [1], the IC50 lay within 10 to 50 µM.
With `O=C(O)Cc1cn(Cc2ccccc2C(F)(F)F)c2ccc(Br)cc12` [Example 103], the concentration for half-maximal inhibition (IC50) under setting [1] is 10 to 50 µM.
As for `O=C(O)Cc1cn(CCCc2ccccc2)c2ccc(Br)cc12` [Example 104], the IC50 under setting [1] lay in the range of 10 to 50 µM.
On the same count and under the same terms, the result for `O=C(O)Cc1cn(Cc2cccc(Oc3ccccc3)c2)c2ccc(Br)cc12` [Example 105] reads less than 10 µM; that for `COc1ccc2c(c1)c(CC(=O)O)cn2Cc1csc2ccc(Cl)cc12` [Example 106], 10 to 50 µM.
As for `COc1ccc2c(c1)c(CC(=O)O)cn2Cc1cccc(OCc2ccccc2)c1` [Example 107], the IC50 under setting [1] is 10 to 50 µM.
Still for that read-out and setting: the result for `O=C(O)Cc1cn(Cc2cccc(Cl)c2)c2ccc(Br)cc12` [Example 108] reads 10 to 50 µM; that for `O=C(O)Cc1cn(Cc2ccc(-c3ccccc3)cc2)c2ccc(Br)cc12` [Example 109], less than 10 µM; that for `O=C(O)Cc1cn(Cc2ccc(Cl)c(Cl)c2)c2ccc(Br)cc12` [Example 110], 10 to 50 µM.
Same read-out and setting: the result for `COc1cccc(Cn2cc(CC(=O)O)c3cc(Br)ccc32)c1` [Example 111] reads 10 to 50 µM; that for `O=C(O)Cc1cn(Cc2cccc(-c3ccccc3)c2)c2ccc(OCc3ccccc3)cc12` [Example 112], less than 10 µM.
Same read-out and setting: next, `O=C(O)Cc1cn(Cc2cccc(Br)c2)c2ccc(OCc3ccccc3)cc12` [Example 113]: 10 to 50 µM; `CC(C)c1ccc(Cn2cc(CC(=O)O)c3cc(OCc4ccccc4)ccc32)cc1` [Example 114]: 10 to 50 µM.
As for `O=C(O)Cc1cn(Cc2cccc(Oc3ccccc3)c2)c2ccc(OCc3ccccc3)cc12` [Example 115], the IC50 under setting [1] is less than 10 µM.
Consider `O=C(O)Cc1cn(Cc2cccc(OCc3ccccc3)c2)c2ccccc12` [Example 116], for which the IC50 under setting [1] fell in the range of 10 to 50 µM.
On the same count and under the same terms, next, `CN(C)C(=O)c1cccc(-c2cccc(Cn3cc(CC(=O)O)c4cc(OCc5ccccc5)ccc43)c2)c1` [Example 117]: 10 to 50 µM.
On the same count and under the same terms, the result for `Cc1cc(-c2cccc(Cn3cc(CC(=O)O)c4cc(OCc5ccccc5)ccc43)c2)ccc1F` [Example 118] reads less than 10 µM; that for `O=C(O)Cc1cn(Cc2cccc(-c3cncnc3)c2)c2ccc(OCc3ccccc3)cc12` [Example 119], 10 to 50 µM.
The same measure, in the same setting: the result for `O=C(O)Cc1cn(Cc2cccc(Oc3ccc(F)cc3)c2)c2ccc(OCc3ccccc3)cc12` [Example 120] reads less than 10 µM; that for `O=C(O)Cc1cn(Cc2csc3ccc(Cl)cc23)c2ccccc12` [Example 121], 10 to 50 µM.
As to `O=C(O)Cc1cn(Cc2ccc(-c3ccccc3)cc2)c2ccc(OCc3ccccc3)cc12` [Example 122], under setting [1], the IC50 was less than 10 µM.
The same measure, in the same setting: next, `O=C(O)Cc1cn(Cc2cccc(I)c2)c2ccc(OCc3ccccc3)cc12` [Example 123]: less than 10 µM.
Consider `Cc1cc(-c2cccc(Cn3cc(CC(=O)O)c4cc(OCc5ccccc5)ccc43)c2)on1` [Example 124], for which, under setting [1], the IC50 lay within 10 to 50 µM.
On the same count and under the same terms, next, `O=C(O)Cc1cn(Cc2csc(-c3ccccc3)n2)c2ccc(OCc3ccccc3)cc12` [Example 125]: 10 to 50 µM.
Consider `O=C(O)Cc1cn(Cc2noc(-c3ccccc3)n2)c2ccc(OCc3ccccc3)cc12` [Example 126], for which, under setting [1], the 50% inhibitory concentration (IC50) is 10 to 50 µM.
The same measure, in the same setting: next, `O=C(O)Cc1cn(Cc2cccc(-c3c[nH]nn3)c2)c2ccc(OCc3ccccc3)cc12` [Example 127]: 10 to 50 µM; `CCOC(=O)c1ccc(Cn2cc(CC(=O)O)c3cc(OCc4ccccc4)ccc32)o1` [Example 128]: 10 to 50 µM.
On the same count and under the same terms, next, `O=C(O)Cc1cn(Cc2cccc(-c3cccc(Cl)c3)c2)c2ccc(OCc3ccccc3)cc12` [Example 129]: less than 10 µM; `O=C(O)Cc1cn(Cc2cccc(-c3cccnc3)c2)c2ccc(OCc3ccccc3)cc12` [Example 130]: 10 to 50 µM; `O=C(O)Cc1cn(Cc2cccc(-c3cn[nH]c3)c2)c2ccc(OCc3ccccc3)cc12` [Example 131]: less than 10 µM.
On to `O=C(O)Cc1cn(Cc2csc3ccc(F)cc23)c2ccc(Br)cc12` [Example 132], for which the IC50 under setting [1] fell in the range of 10 to 50 µM.
On the same count and under the same terms, next, `O=C(O)Cc1cn(Cc2csc3ccc(F)cc23)c2ccccc12` [Example 133]: 10 to 50 µM.
Still for that read-out and setting: next, `O=C(O)Cc1cn(Cc2cc(F)cc(C(F)(F)F)c2)c2ccc(Br)cc12` [Example 134]: 10 to 50 µM.
Same read-out and setting: the result for `O=C(O)Cc1cn(Cc2csc3ccc(Br)cc23)c2ccc(Br)cc12` [Example 135] reads less than 10 µM; that for `COc1ccc2scc(Cn3cc(CC(=O)O)c4cc(Br)ccc43)c2c1` [Example 136], less than 10 µM; that for `O=C(O)Cc1cn(Cc2ccc(Cl)s2)c2ccc(Br)cc12` [Example 137], 10 to 50 µM.
On to `O=C(O)Cc1cn(Cc2cc(-c3ccccc3)no2)c2ccc(Br)cc12` [Example 138], for which the IC50 under setting [1] fell in the range of 10 to 50 µM.
Turning to `CC(C)Oc1ccc2scc(Cn3cc(CC(=O)O)c4cc(Br)ccc43)c2c1` [Example 140], the IC50 under setting [1] was less than 10 µM.
For `CC(C)Oc1ccc2scc(Cn3cc(CC(=O)O)c4cc(Br)ccc43)c2c1` [Example 141], the IC50 under setting [1] lay in the range of 10 to 50 µM.
As to `CCOc1ccc2scc(Cn3cc(CC(=O)O)c4ccccc43)c2c1` [Example 142], the half-maximal inhibitory concentration (IC50) under setting [1] fell in the range of 10 to 50 µM.
On to `O=C(O)Cc1cn(-c2ccc3ccccc3c2)c2ccccc12` [Example 143], for which the IC50 under setting [1] is 10 to 50 µM.
Same read-out and setting: next, `COc1cccc(-c2ccc(-n3cc(CC(=O)O)c4ccccc43)cc2)c1` [Example 144]: less than 10 µM; `O=C(O)Cc1cn(-c2ccc(-c3cccc(Cl)c3)cc2)c2ccccc12` [Example 145]: less than 10 µM.
The same measure, in the same setting: next, `Cc1ccc2sc(-n3cc(CC(=O)O)c4ccccc43)cc2c1` [Example 146]: less than 10 µM; `O=C(O)Cc1cn(-c2ccc3sccc3c2)c2ccccc12` [Example 147]: 10 to 50 µM.
For `O=C(O)Cc1cn(-c2ccc3c(c2)CCC3=O)c2ccccc12` [Example 148], the IC50 under setting [1] fell in the range of 10 to 50 µM.
In the case of `CCc1cc2cc(-n3cc(CC(=O)O)c4ccccc43)ccc2s1` [Example 149], the IC50 under setting [1] was less than 10 µM.
Same read-out and setting: next, `Cc1c(Cl)cccc1-c1ccc(-n2cc(CC(=O)O)c3ccccc32)cc1` [Example 150]: less than 10 µM; `O=C(O)Cc1cn(-c2ccc(-c3cc(Cl)cc(Cl)c3)cc2)c2ccccc12` [Example 151]: less than 10 µM.
As to `O=C(O)Cc1cn(-c2ccc(-c3cccc(C(F)(F)F)c3)cc2)c2ccccc12` [Example 152], under setting [1], the IC50 was less than 10 µM.
Consider `O=C(O)Cc1cn(-c2ccc(-c3ccccc3Cl)cc2)c2ccccc12` [Example 153], for which, under setting [1], the IC50 was less than 10 µM.
On the same count and under the same terms, next, `Cc1ccccc1-c1ccc(-n2cc(CC(=O)O)c3ccccc32)cc1` [Example 154]: less than 10 µM; `CSc1cccc(-c2ccc(-n3cc(CC(=O)O)c4ccccc43)cc2)c1` [Example 155]: less than 10 µM; `Cc1cc(NC(=O)Cc2ccccc2)ccc1-n1cc(CC(=O)O)c2ccccc21` [Example 156]: 10 to 50 µM.
The same measure, in the same setting: the result for `Cc1cc(NC(=O)Cc2cccs2)ccc1-n1cc(CC(=O)O)c2ccccc21` [Example 157] reads 10 to 50 µM.
Still for that read-out and setting: the result for `Cc1cc(NC(=O)c2cccs2)ccc1-n1cc(CC(=O)O)c2ccccc21` [Example 158] reads 10 to 50 µM; that for `Cc1cc(NC(=O)CSc2ccccc2)ccc1-n1cc(CC(=O)O)c2ccccc21` [Example 159], 10 to 50 µM.
`CC(=O)N(C)c1ccc(-n2cc(CC(=O)O)c3ccccc32)c(C)c1` [Example 160]: under setting [1], the IC50 lay within 10 to 50 µM.
The same measure, in the same setting: next, `O=C(O)Cc1cn(-c2ccc(NCc3ccccc3)cc2)c2ccccc12` [Example 161]: less than 10 µM; `CN(Cc1ccccc1)c1ccc(-n2cc(CC(=O)O)c3ccccc32)cc1` [Example 162]: less than 10 µM.
On the same count and under the same terms, the result for `Cc1oncc1C(=O)Nc1ccc(-n2cc(CC(=O)O)c3ccccc32)cc1` [Example 163] reads 10 to 50 µM.

One may read the IC50 as the point on the concentration scale where inhibition reaches its midpoint.
